Numbering of substitutions follows the chain as printed. Entries after “also recorded” stand apart in the source; their conditions may differ. Values belong to the compound of their own block, whether it stands above or below them.
Assays:
MC38 cells [1] = assay: Apoptosis flow cytometry assay (FITC Annexin V/PI); type: cell-based, murine; settings: for apoptosis induction in MC38 cells: agent alone: Venetoclax 3 μM, Doxorubicin 1 μM, Docetaxel 10 μM, Simvastatin 10 μM
Protocol: Cell lines and drugs: MC38 and B16 cell lines were derived from C57BL6 murine colon adenocarcinoma and melanoma cells, respectively. The cells were maintained in Dulbecco's modified Eagle's medium (DMEM) supplemented with 10% heat-inactivated fetal bovine serum (FBS) and 100 U/mL penicillin/streptomycin. The CT26 cells were derived from murine colon adenocarcinoma cells and cultured in RPMI1640 with 10% FBS and 2 mM GlutaMAX.
Apoptosis flow cytometry assay: FITC Annexin V Apoptosis Detection Kit with PI (BioLegend) was used for apoptosis detection. The MC38 cells were seeded in 24-well plate with 1×10^5 cells/well and cultured overnight. […] After 24 hours treatment, cells were collected and dissociated as single cell suspensions for Annexin V/PI staining. In briefing, cells were washed twice with cold BioLegend's Cell Staining Buffer, then resuspended in […] Annexin V Binding Buffer. […] FITC Annex V and […] Propidium Iodide (PI) Solution were added in each sample. The samples were gently vortexed and incubated for 15 minutes at room temperature in the dark. Wash the samples with Cell Staining Buffer one time and resuspend cells in […] Cell Staining Buffer for flow cytometry analysis. The data were recorded on BD Accuri™ C6 plus flow Cytometer and analyzed with FlowJo software.

IFNβ = assay: Interferon-beta (IFNβ) ELISA assay of MC38 cell culture supernatants; type: cell-based, murine; settings: 24 hours
Protocol: The concentration of IFNβ was measured with VeriKine-HS Interferon Beta Serum ELISA Kit (PBL Assay Science) in accordance with the manufacturer's instruction. The data of absorbance was recorded at 450 nm by using BioTek synergy 4 plate reader and analyzed with GraphPad software.

caspase-3 [2] = target: T1, caspase-3 (Mus musculus, UniProt P70677); assay: Caspase-3 activity assay in MC38 cells; type: cell-based, murine
T1 construct: the cells were lysed in 25 μL 1× lysis buffer on ice for 20 min; endogenous in cells; host or cells: MC38 cells (lysate)
T1 sequence (P70677 29-175 limits assumed): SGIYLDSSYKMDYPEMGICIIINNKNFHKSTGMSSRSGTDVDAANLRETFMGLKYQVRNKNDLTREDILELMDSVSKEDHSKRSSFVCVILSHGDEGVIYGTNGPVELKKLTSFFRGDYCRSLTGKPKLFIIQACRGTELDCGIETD
T1 sequence (P70677 176-277 limits assumed): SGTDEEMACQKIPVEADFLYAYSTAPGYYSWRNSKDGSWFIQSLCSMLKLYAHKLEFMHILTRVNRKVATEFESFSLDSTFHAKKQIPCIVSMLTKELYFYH
Protocol: Caspase-3 activity assay: Caspase-3 activity was measured by using Sigma Caspase 3 Assay Kit, Fluorimetric. In brief, MC38 cells were cultured in 96-well plates and treated with Docetaxel and Docetaxel/Emricasan combination, respectively. Dose-dependent effect of Docetaxel on caspase-3 activity was tested in MC38 cells; Docetaxel/Emricasan combination treatment was applied to reverse Docetaxel induced caspase-3 activity. After 24 h drug treatment, the cells were lysed in 25 μL 1× lysis buffer on ice for 20 min, then added 200 μL of 16.7 μM Ac-DEVD-AMC substrate solution to incubate at RT in the dark for 30 min. The fluorescent signals were read in BioTek Synergy 4 plate reader at excitation 360 nm and emission 460 nm.

MC38 cells [3] = assay: Tumor cell killing / cytotoxicity, MC38 (FIG. 11a); type: cell-based, murine
A549 = assay: Tumor cell killing / cytotoxicity, A549 (FIG. 11b); type: cell-based; settings: with 10 μM of emricasan
MiaPaca-2 = assay: Tumor cell killing / cytotoxicity, MiaPaca-2 (FIG. 11c); type: cell-based; settings: with 10 μM of emricasan
PD-L1 = PD-L1 expression flow cytometry assay; type: cell-based, murine; settings: MC38 cells; 1 μM Docetaxel, 10 μM Emricasan, or the combination; 24 h; FIG. 21
Protocol: PD-L1 expression flow cytometry assay: Cell surface PD-L1 expression was detected by flow cytometry assay. The cells were plated in 24-well plates and treated with 1 μM Docetaxel, 10 μM Emricasan, and the combination of the two drugs. Untreated cells were used as a control. After 24 h of treatment, the cells were dissociated and harvested for PD-L1 staining with BioLegend PE anti-mouse PD-L1 antibody (MIH7 clone). The PD-L1 expression was measured in BD Accuri C6 Plus flow cytometer, The mean density of PD-L1 was analyzed by FlowJo V10 software.

MC38 model = assay: In vivo tumor growth study, MC38 model; design: species or system mice
Protocol: (§1) In vivo studies: Female C57BL6 and Balb/C mice of 9 weeks of age were obtained from the Jackson lab, ME. Passages were made twice weekly with a 1:2 split and cultured in DMEM:F12 supplemented with 10% FBS (HyClone, Ft. Collins, Colo.). For inoculation, approximately 5-8×10^5 cells were suspended in 100 μL of PBS (Becton Dickinson Labware, Bedford, Mass.) and injected subcutaneously into the flanks of mice. Most mice developed palpable tumors within 5 days of inoculation. Tumor bearing mice are grouped in cohorts of 5-8 mice for dosing studies. Mice with tumor sizes of 50-100 mm^3 are randomized between treatment groups. Baseline tumor volumes were established and dosing initiation began on day 0. Emricasan was administered as a salt intratumorally or interperitoneally for 3-4 days. If docetaxel was used, it was administered interperitoneally or intravenously in Tween80/PEG300 or Tween80/ethanol with PBS the day before emricasan was given. Emricasan and docetaxel were co-formulated in Tween80/PEG300 and co-administered intratumorally after diluting with PBS. Tumor volumes were measured twice a week using standard calipers and calculated as […], with the length and width defined as the long and short axes, respectively. Measurement of body weight was initiated on day 0 and repeated once a week.

caspase-3 [4] = target: T2, caspase-3 (Homo sapiens, UniProt P42574); assay: Caspase activity in A549 tumor cells (FIG. 10b); type: cell-based; design: endogenous in cells; host or cells: A549 cells
T2 sequence (P42574 29-175 limits assumed): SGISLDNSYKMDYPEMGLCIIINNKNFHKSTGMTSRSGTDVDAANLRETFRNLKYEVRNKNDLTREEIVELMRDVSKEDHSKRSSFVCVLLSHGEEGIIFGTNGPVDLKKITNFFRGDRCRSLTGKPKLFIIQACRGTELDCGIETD
T2 sequence (P42574 176-277 limits assumed): T1 sequence (P70677 176-277 limits assumed) with T3V, E5D, E6D, Q10H, S46A, L50Q, H53D, L77F, S79A

caspase-3 [5] = target: T2, caspase-3; assay: Caspase activity in MiaPaca-2 tumor cells (FIG. 10c); type: cell-based; design: endogenous in cells; host or cells: MiaPaca-2 cells
B16 model = assay: In vivo tumor growth study, B16 model; design: species or system mice; settings: emricasan amine salt intratumorally 5 mpk and 10 mpk q.d 4 days, FIG. 19
Protocol: as §1, with “Mice with tumor sizes of 50-100 mm^3 are randomized between treatment groups.” left out

CT26 model = assay: In vivo tumor growth study, CT26 model; design: species or system mice; settings: emricasan amine salt intratumorally 5 mpk and 10 mpk q.d 4 days, FIG. 20
Protocol: as §1, with “Mice with tumor sizes of 50-100 mm^3 are randomized between treatment groups.” left out

[6] = agent alone: simvastatin 10 μM, venetoclax 3 μM, doxorubicin 1 μM, docetaxel 10 μM

docetaxel concentration activating caspase most efficiently (caspase-3 [2]; MC38 cells, 24 h, FIG. 10a): ~1 µM
docetaxel concentration activating caspase most efficiently (caspase-3 [4]; A549): ~1 µM
docetaxel concentration activating caspase most efficiently (caspase-3 [5]; MiaPaca-2): ~1 µM
SMILES: CC(=O)O[C@@]12CO[C@@H]1C[C@H](O)[C@@]1(C)C(=O)[C@H](O)C3=C(C)[C@@H](OC(=O)[C@H](O)[C@@H](NC(=O)OC(C)(C)C)c4ccccc4)C[C@@](O)([C@@H](OC(=O)c4ccccc4)[C@H]21)C3(C)C [docetaxel]
apoptosis induction in MC38 cells (MC38 cells [1]; 24 hours): induced substantial apoptosis
IFNβ production in MC38 cells (IFNβ; [6]): slightly reduced IFNβ production
docetaxel concentration killing tumor cells more efficiently (MC38 cells [3]; MC38, with 10 μM of emricasan, FIG. 11a): ~1 µM
cytotoxicity in several tumor cells (MC38 cells [3]; several tumor cells (FIG. 11a-c: MC38, A549, MiaPaca-2)): showed cytotoxicity
docetaxel concentration killing tumor cells more efficiently (A549): ~1 µM
docetaxel concentration killing tumor cells more efficiently (MiaPaca-2): ~1 µM
PD-L1 expression on tumor cells (PD-L1): upregulating PD-L1 expression
tumor control, systemic docetaxel added to intratumoral emricasan (MC38 model; docetaxel 30 mpk single dose intraperitoneal (FIG. 14) or intravenous (FIG. 15), emricasan intratumoral 10 mpk q.d 3-4 days after docetaxel): improved tumor control of emricasan

SMILES: COc1cccc2c1C(=O)c1c(O)c3c(c(O)c1C2=O)C[C@@](O)(C(=O)CO)C[C@@H]3O[C@H]1C[C@H](N)[C@H](O)[C@H](C)O1 [doxorubicin]
apoptosis induction in MC38 cells (MC38 cells [1]; 24 hours): induced substantial apoptosis
IFNβ production in MC38 cells (IFNβ; [6]): slightly reduced IFNβ production

inhibition of caspase activity in tumor cells (caspase-3 [2]; 10 μM of emricasan, docetaxel-treated MC38 cells, FIG. 10a): fully inhibiting the caspase activity
concentration at which emricasan began to effectively inhibit the caspase-3 activity (caspase-3 [2]; tumor cells, FIG. 10a-c): ~1 µM
concentration at which emricasan reached the maximum activity (caspase-3 inhibition) (caspase-3 [2]; tumor cells, FIG. 10a-c): ~10 µM
inhibition of caspase activity in tumor cells (caspase-3 [4]; 10 μM of emricasan, docetaxel-treated A549): fully inhibiting the caspase activity
inhibition of caspase activity in tumor cells (caspase-3 [5]; 10 μM of emricasan, docetaxel-treated MiaPaca-2): fully inhibiting the caspase activity
SMILES: C[C@H](NC(=O)C(=O)Nc1ccccc1C(C)(C)C)C(=O)N[C@@H](CC(=O)O)C(=O)COc1c(F)c(F)cc(F)c1F [emricasan, (S)-3-((S)-2-(2-((2-(tert-butyl)phenyl)amino)-2-oxoacetamido)propanamido)-4-oxo-5-(2,3,5,6-tetrafluorophenoxy)pentanoic acid]
apoptosis induced by docetaxel (MC38 cells [1]; addition of 10 μM emricasan to Docetaxel 10 μM, 24 hours, FIG. 5): significantly reduced the apoptosis
apoptosis induced by doxorubicin (MC38 cells [1]; addition of 10 μM emricasan to Doxorubicin 1 μM, 24 hours, FIG. 4): significantly reduced the apoptosis
apoptosis induced by simvastatin (MC38 cells [1]; addition of 10 μM emricasan to Simvastatin 10 μM, 24 hours, FIG. 2): significantly reduced the apoptosis
apoptosis induced by venetoclax (MC38 cells [1]; addition of 10 μM emricasan to Venetoclax 3 μM, 24 hours, FIG. 3): significantly reduced the apoptosis
apoptosis in MC38 cells (MC38 cells [1]; emricasan alone, 24 hours treatment, FIG. 1): partially blocked the apoptosis
IFNβ production in docetaxel treated MC38 cells (IFNβ; addition of 10 μM emricasan to docetaxel 10 μM, FIG. 9): significantly enhanced the IFNβ production
IFNβ production in doxorubicin treated MC38 cells (IFNβ; addition of 10 μM emricasan to doxorubicin 1 μM, FIG. 8): significantly enhanced the IFNβ production
IFNβ production in simvastatin treated MC38 cells (IFNβ; addition of 10 μM emricasan to simvastatin 10 μM, FIG. 7): significantly enhanced the IFNβ production
IFNβ production in MC38 cells (IFNβ; emricasan alone, FIG. 6): slightly enhanced the IFNβ production
PD-L1 expression on tumor cells (PD-L1): upregulated the PD-L1 expression
rejection of rechallenged tumor in cured mice (MC38 model; cured mice from the FIG. 15 study, rechallenged, FIG. 16): able to reject rechallenged tumor; also recorded: able to reject rechallenged tumors more efficiently
systemic tumor control, systemic emricasan added to intravenous docetaxel (MC38 model; docetaxel intravenous 50 mpk single dose, emricasan intraperitoneal 20 mpk b.i.d 3 days after docetaxel, FIG. 18): improved the systemic tumor control of intravenously administered docetaxel
distal tumor control (MC38 model; emricasan alone intratumorally 10 mpk q.d 4 days, FIG. 13): moderate
tumor control at the site of injection (MC38 model; emricasan alone intratumorally 10 mpk q.d 4 days, small MC38 tumors (~50 mm^3), FIG. 12): able control small MC38 tumors
number of cured mice (MC38 model; study of FIG. 15: docetaxel intravenous 30 mpk single dose, emricasan intratumoral 10 mpk q.d 4 days): 5 mice
tumor control efficacy (B16 model): produced tumor control efficacy
tumor control efficacy (CT26 model): produced tumor control efficacy

From US20230145200A1, “COMPOSITIONS AND METHODS OF TREATING CANCER” (Tillead Therapeutics, Inc., priority 2020, published 2023)
